Assay results reported in a melting point compilation (Tetko et al.; mined from patent text by program, amines drawn as free bases though some values may be those of a salt).

In the case of `N#Cc1cnn2c1NCCC2c1cccc(F)c1` (stereo not drawn), the melting point is reported as 146 to 148 °C.
Molecule `CCCCC1OC(=O)c2cc(NC(=O)OCC)ccc21` (stereo not drawn) has a melting point of 125 to 126 °C.
`CCOc1ccc(C=CC(=O)OC)cc1` showed a melting point of 68 to 70 °C.
For `CC(NC(=O)NO)c1ccc2cc(OCc3csc(-c4ccccc4)n3)ccc2c1` (single isomer, unassigned; (-)), the melting point was 171 to 173 °C.
In the case of `Nc1nnc(Cc2cccc(C(F)(F)F)c2)s1`, the melting point is reported as 174 to 176 °C.
In the case of `Brc1cnc(-c2ccccc2)c2ccccc12`, the melting point is reported as 123 to 125 °C.
In the case of `Cc1cc(Cl)ccc1OCC(=O)N1CCSC1C(=O)O` (stereo not drawn), the melting point is reported as 147 to 148 °C.
For `O=C(OCC1CCCCC1)c1ncn2c1[C@@H]1CCCN1C(=O)c1c(Cl)cccc1-2`, the melting point was 123 to 124 °C.
In the case of `CC1=C(O)CCC(C)(C)C1=O`, the melting point is reported as 112 to 114 °C.
Work on `CC(O)C(C)(C)c1cc(Cn2cncn2)cc(C(C)(C)C#N)c1` (stereo not drawn) yielded a melting point of 83 to 84 °C.
In the case of `O=S(=O)(O)c1ccc2c(c1)CNC(C(Cl)(Cl)Cl)O2` (stereo not drawn), the melting point is reported as > 260 °C.
`CCCCCCCCCc1cnc(-c2ccc(OCc3ccc(CCCCCC)cc3)cc2)nc1` showed a melting point of 51 °C.
For `O=C(NO)c1ccc(N2CCCC2)cn1`, the melting point was 220 to 225 °C.
In the case of `CC1CC(=O)NN=C1c1ccc2c(c1)N(CC(=O)N1CCN(CCO)CC1)CS2=O` (stereo not drawn), the melting point is reported as 231 to 233 °C.
For `COC(=O)Cc1ccc([N+](=O)[O-])cc1`, the melting point was 45 to 46 °C.
For `Cc1ccc(S(=O)(=O)OCC2CC(=O)N(Cc3ccccc3)C2c2c(Cl)cccc2Cl)cc1` (stereo not drawn), the melting point was 110 to 114 °C.
`Cc1csc(C2=C(c3ccc(S(C)(=O)=O)cc3)CCC2)c1` showed a melting point of 138 to 139 °C.
With `COC(=O)c1ccc(Br)cc1Cl` the melting point was 28 to 30 °C.
Work on `CSc1ccc(N=Cc2ccc(F)cc2)cc1` yielded a melting point of 157 to 158 °C.
With `O=C(NCCN1CCN(c2ncccn2)CC1)NC12CC3CC(CC(C3)C1)C2` the melting point was 170 to 171 °C.
With `COc1cc2c(cc1C(F)(F)F)N(C(=O)Nc1csc(-c3cccnc3)n1)CC2` the melting point was > 200 °C.
With `N=c1n[n+]([O-])c2ccccc2n1OC(=O)c1ccccc1` the melting point was 177 to 179 °C.
For `CC(/C=C/C=C(\C)C1=Cc2cc(C(C)(C)C)cc(C)c2OC1)=C\C(=O)O`, the melting point was 227 to 228 °C.
Work on `CN(C)CCNc1nc(C2C(=O)Nc3ccc(Br)cc32)c2cn(C)nc2n1` (stereo not drawn) yielded a melting point of 279 to 289 °C.
Molecule `c1ccc2c(c1)CCc1c-2n[nH]c1-c1ccncc1` has a melting point of 229 °C.
`C=CCN1N=C(c2ccc(OC)c(OC)c2)[C@@H]2CCCC[C@@H]2C1=O` (relative stereo) gave a melting point of 99 to 101 °C.
In the case of `CC(C)(C)c1nc2c(Cl)ccc(C(=O)O)c2o1`, the melting point is reported as 209 to 210 °C.
`CCc1cc2c(OC)ccc(C)c2nc1Cl` gave a melting point of 101 to 102 °C.
In the case of `COn1c(C#N)c(C#N)c(Br)c1-c1ccc(Cl)cc1`, the melting point is reported as 166 to 167 °C.
In the case of `CCCCCCCCCCC[C@@H](C[C@@H]1OC(=O)[C@H]1CCCCCC)OC(=O)[C@H](CC(C)C)NC=O`, the melting point is reported as 44 to 45 °C.
Molecule `CC(NC(=O)OC(C)(C)C)C(=O)NO` (stereo not drawn) has a melting point of 74 to 76 °C.
`COc1ccc(CCc2ccc(C(F)(F)F)cc2)cc1` gave a melting point of 80 °C.
With `O=C(NC(Cc1ccc(OCc2ccccc2)cc1)C(=O)O)c1ccc2nc(-c3ccc(Cl)cc3)cn2c1` (stereo not drawn) the melting point was 278 to 280 °C.
Work on `Fc1cc2c(cc1F)CC(n1cc[nH]c1=S)C2` yielded a melting point of 255 to 257 °C.
Work on `Cc1nc(C)c(-c2ccnc(Nc3ccc(C)c(S(=O)(=O)N4CCOCC4)c3)n2)s1` yielded a melting point of 81 to 83 °C.
With `COC(=O)Nc1cccc(C(=O)C=CN(C)C)c1` the melting point was 210 to 211 °C.
`COc1ccc2c(=O)[nH]c(=O)[nH]c2c1OC` gave a melting point of 314 to 316 °C.
Molecule `CC[C@@]12CCCN1[C@@H](C(Cl)(Cl)Cl)OC2=O` has a melting point of 76 to 77 °C.
Work on `COc1ccc(S(=O)(=O)N2c3ccccc3-c3ccccc3C2C)cc1C` (stereo not drawn) yielded a melting point of 171 to 173 °C.
`CC(C)C(CN1CCC(Nc2nc3ccccc3n2-c2cccc3c2NCCC3)CC1)NCc1ccccc1` (stereo not drawn) gave a melting point of 126 °C.
In the case of `COc1c(C2CCN(CCCCNC(=O)c3ccc(-c4ccc(C#N)cc4)nc3)CC2)ccc2c1CCCC2`, the melting point is reported as 166 to 168 °C.
`CCCCCCCCCCCCOS(=O)(=O)NC(=O)Nc1c(C(C)C)cccc1C(C)C` showed a melting point of 112 to 115 °C.
`CCCCn1cc(C(=O)O)c2ccc(Cl)cc21` showed a melting point of 149 to 151 °C.
Molecule `C=Cc1cc(NC(=O)N2CCN(c3cc(OC)cc(OC)c3)CC2)c(OC)nc1C` has a melting point of 140 to 141 °C.
In the case of `CCc1nc2c(N)nc3cc(CCC(N)=O)ccc3c2n1CC1CCOCC1`, the melting point is reported as 197 to 199 °C.
`CCC(=O)NCc1ccc(CN2CCN(c3ccccc3)CC2)cc1` showed a melting point of 140 to 141 °C.
With `ON=Cc1cc(Br)ccc1OCc1ccccc1` the melting point was 132 to 134 °C.
For `O=C(O)c1cc(-c2ccc(C(F)(F)F)cc2)nc(C(F)(F)F)c1`, the melting point was 204 to 205 °C.
`Cc1csc(-c2cc(C)cn2-c2ccc(S(N)(=O)=O)cc2)c1` gave a melting point of 172 to 173 °C.
In the case of `CC1=C(c2ccncc2)SCC(=O)N1C`, the melting point is reported as 139 to 140 °C.
Molecule `CCOC(=O)c1cc2c(C)c(C)cc(NS(=O)(=O)c3cccs3)c2[nH]1` has a melting point of 161 to 162 °C.
Molecule `Clc1cccc(Cl)c1N=C1NCCN1OCc1ccccc1` has a melting point of 115 to 117 °C.
`CCOC(=O)NNc1ccc(N(CC)CC(C)O)nn1` (stereo not drawn) gave a melting point of 160 to 162 °C.
In the case of `NNC(=S)c1ccccc1`, the melting point is reported as 66 to 68 °C.
`O=C(Nc1cccc(S(=O)(=O)NCc2ccccc2)c1)c1cnn2c(C(F)(F)F)cc(-c3ccc(C(F)(F)F)cc3)nc12` gave a melting point of 227 °C.
`CCCn1c(CCO)nc(C(C)C)c1Sc1cc(Cl)cc(Cl)c1` showed a melting point of 88 to 89 °C.
Molecule `O=[N+]([O-])c1cc(F)ccc1S(=O)(=O)c1ccccc1` has a melting point of 127 to 129 °C.
Molecule `CCCCCCCC1=CCC(c2cc(F)c(F)c(F)c2)C=C1` (stereo not drawn) has a melting point of 14 °C.
Work on `O=C1C2=C(CCCC2)C(Cl)N1c1ccc(Cl)cc1F` (stereo not drawn) yielded a melting point of 89 to 90 °C.
Work on `O=[N+]([O-])c1ccc(F)c(I)c1F` yielded a melting point of 46.1 to 47.5 °C.
In the case of `NC(=Nc1ccc2[nH]c3ccccc3c2c1)c1cccs1`, the melting point is reported as 243 to 244 °C.
With `CCCOc1cc2c(c3c(=O)c(-c4ccc(OC)cc4)cn(CCCN4CCOCC4)c13)CCC2` the melting point was 135 to 137 °C.
Molecule `CCOc1nc(C)c(N2CCCn3c2nc2c(Cl)ccc(C(OC(F)F)C(F)(F)F)c23)c(C)n1` (stereo not drawn) has a melting point of 218 to 220 °C.
Molecule `N#Cc1ccc(N2C(=O)N(CCCCCN3C(=O)N(c4ccc(C#N)c(C(F)(F)F)c4)C(=O)C34CC4)C3(CC3)C2=O)cc1C(F)(F)F` has a melting point of 154 to 155 °C.
Work on `CCOC(=O)c1cn(-c2cc(N)c(F)c(F)c2F)c2cc(F)c(F)cc2c1=O` yielded a melting point of 116 to 124 °C.
`COc1ccc(CCNC(=O)C(N)=O)cc1OC` showed a melting point of 171 to 172 °C.
For `COc1cc(OC)cc(C(=O)NC(NC(=NC#N)Nc2cccnc2OC)C(C)(Cl)Cl)c1` (stereo not drawn), the melting point was 198 to 199 °C.
In the case of `CCOC(=O)Nc1[nH]c2ccc(Sc3ccccc3)cc2c1C#N`, the melting point is reported as 181 to 182 °C.
`OCCCN1Cc2cccc3c2N(CC3)c2ccccc21` gave a melting point of 194 to 196 °C.
`CC(=O)C(C)=Cc1cc(O)c(O)c([N+](=O)[O-])c1` showed a melting point of 139 to 141 °C.
For `Cc1nc2c(N)nc3ccccc3c2n1CCCCS(C)(=O)=O`, the melting point was 206 to 209 °C.
Work on `Cc1nnc2ccc(-c3cccs3)nn12` yielded a melting point of 152 to 153 °C.
`CCC(C)Nc1c(N)cc(C)c(C)c1[N+](=O)[O-]` (stereo not drawn) showed a melting point of 36 to 37 °C.
With `CN1CCC(c2n[nH]c3ccc([N+](=O)[O-])cc23)CC1` the melting point was 237 to 239 °C.
`CC(=O)NCc1ccc(CN2CCN(c3cnccn3)CC2)cc1` showed a melting point of 118 to 119 °C.
`CCOC(=O)C1C(=O)Nc2ccccc2SC1c1ccc(C)cc1` (stereo not drawn) gave a melting point of 185 °C.
`COc1cc(C)nc(NC(=O)NS(=O)(=O)c2cccnc2Cl)n1` showed a melting point of 165 to 168 °C.
With `NP(N)(=O)NC(=O)c1cccs1` the melting point was 272 to 280 °C.
Molecule `CCCc1nc(C)n2[nH]c(=O)nc2c1Br` has a melting point of 221 °C.
`Cc1cc(OC2CCS(=O)(=O)CC2)cc(C)c1-c1cccc(COc2ccc(C3CC3C(=O)O)cc2)c1` (stereo not drawn) gave a melting point of 161 to 162 °C.
For `C[C@]1(CN2CCN(C3CCN(CC=Cc4ccc(OC(F)(F)F)cc4)CC3)CC2)Cn2cc([N+](=O)[O-])nc2O1`, the melting point was 157 to 158 °C.
In the case of `CC12CCC3=C4CCC(=O)C=C4CCC3C1C=CC2=O` (stereo not drawn), the melting point is reported as 182 to 183 °C.
With `O=C(O)Cc1ccc(OCc2ccc(Cl)cc2C(=O)O)cc1` the melting point was 205 to 208 °C.
Molecule `CCOC(=O)C(N=CC1C=C(Cl)C=CC1(OC(C)=O)c1ccccc1)C(=O)OCC` (stereo not drawn) has a melting point of 85 to 87 °C.
For `O=C1C2CCN(CC2)C1CN1CCCCC1` (stereo not drawn), the melting point was 34 to 37 °C.
`Cn1c(=O)c2cn(S(=O)(=O)CCCCl)nc2n(C)c1=O` showed a melting point of 160 to 162 °C.
For `Cc1noc2cc(OCCCNCC3CCc4ccc(O)cc4O3)ccc12` (stereo not drawn), the melting point was 169 to 170 °C.
`C=C(C)C(=O)Oc1ccc(S(=O)(=O)Nc2ccccc2)cc1` showed a melting point of 101 to 102 °C.
In the case of `COc1cccc(CCSc2c(O)cc(-c3ccccc3)oc2=O)c1`, the melting point is reported as 112 to 113 °C.
Work on `O=C(O)C1CCCc2c(-c3ccc(Cl)cc3)noc2C1` (stereo not drawn) yielded a melting point of 215 to 217 °C.
`Cc1nc(S(=O)(=O)Cc2ccc(Cl)cc2)nc2c1CCCC2` showed a melting point of 151 °C.
`CONC(=N)c1ccc(-c2cc3ncn([C@H](C)[C@](O)(Cn4cncn4)c4ccc(F)cc4F)c(=O)c3s2)cc1` gave a melting point of 125 to 128 °C.
`O=C(Nc1cc(CN2CCOCC2)c(O)c(CN2CCOCC2)c1)c1ccccc1` gave a melting point of 152 to 154 °C.
With `COC(=O)c1ccc2ncccc2c1C(=O)OC` the melting point was 124 to 125 °C.
`COc1cc(C)nc(NC(=O)NS(=O)(=O)c2cccc3c2S(=O)(=O)C(C)(C)S3(=O)=O)n1` gave a melting point of 191 to 200 °C.
`O=c1oc(-c2ccccc2)cc(O)c1SCCc1cccc(Cl)c1` showed a melting point of 133 to 134 °C.
For `Nc1cc(=O)n(Cc2ccc(F)cc2)[nH]1`, the melting point was 148 °C.
Molecule `CC(C)Oc1ccccc1C1(OCC(=O)O)C(=O)Nc2ccc(Cl)cc21` (stereo not drawn) has a melting point of 225 to 228 °C.
In the case of `COc1ccnc2c1c(C(C)=O)cn2S(=O)(=O)c1ccccc1`, the melting point is reported as 156 to 158 °C.
`O=C(Cc1cccc2ccccc12)Nc1cc([C@H]2C[C@@H](Oc3nc4ccccc4o3)C2)[nH]n1` gave a melting point of 142 °C.
`COc1cc(COc2nn(-c3ccccc3)cc2/C=C/C#N)ccc1OCc1nc(-c2ccco2)oc1C` gave a melting point of 177 to 178 °C.
With `Cc1nc(NC(=O)Nc2ccc(F)cc2)sc1C(=O)NCc1ccccc1` the melting point was > 300 °C.
Work on `CCOC(=O)N1CCn2c(nc(-c3ccncn3)cc2=O)C(NCc2ccc(OC)cc2)C1` (racemic) yielded a melting point of 217 to 219 °C.
